For eight compounds, inhibition and pest or weed control results are on record in patent publication US20250042886A1, “BIS(HETERO)ARYL THIOETHER OXADIAZINES AS FUNGICIDAL COMPOUNDS” (Bayer Aktiengesellschaft, priority 2021, published 2025).

For test [1], the system named is Botrytis cinerea. As to the kind of experiment: Botrytis cinerea in vitro cell test. Type of test: cell-based. The following applies: 144 h, liquid culture, 6 days incubation, read-out: efficacy (inhibition of fungal growth); for inhibition at 20 ppm: 20 ppm of active ingredient. The procedure, abridged: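 Compounds from DMSO stocks added at a range of concentrations to a defined mineral-salt/sucrose liquid medium inoculated with B. cinerea spores. After 6 days' incubation, mycelium growth was read by absorbance; inhibition of germination and growth was calculated against fungicide-free control wells.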

The test system of test [2] is Botrytis cinerea. As to the kind of experiment: In vivo preventive test on Botrytis cinerea (grey mould). To be noted: 500 ppm of active ingredient, sprayed on young gherkin or cabbage plants 24 h before inoculation, evaluated 4 to 5 days after inoculation, read-out: efficacy. The procedure, abridged: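 Compounds in DMSO/acetone/Tween 80 were diluted in water and sprayed onto young gherkin or cabbage plants; controls got solvent only. After 24 h, leaves were sprayed with an aqueous Botrytis cinerea spore suspension.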

The test system of test [3] is Colletotrichum lindemuthianum. Kind of test: Colletotrichum lindemuthianum in vitro cell test. Type of test: cell-based. The following applies: 144 h, liquid culture, 6 days incubation, read-out: efficacy (inhibition of fungal growth); for inhibition at 20 ppm: 20 ppm of active ingredient. An outline of the steps:
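C. lindemuthianum spores in liquid glucose–peptone–yeast extract medium were exposed to compounds dissolved in DMSO. After 6 days, mycelial growth was measured by absorbance, and inhibition was calculated against compound-free control wells.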

For a further test, the system named is Alternaria brassicae. As to the kind of experiment: In vivo preventive test on Alternaria brassicae (leaf spot on radish or cabbage). The following applies: 500 ppm of active ingredient, sprayed on young radish or cabbage plants 24 h before inoculation, evaluated 3 to 4 days after inoculation, read-out: efficacy. The procedure, abridged: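 Young radish or cabbage plants sprayed preventively with compound formulated in DMSO/acetone/Tween 80 and diluted in water; vehicle-treated plants as controls. Leaves inoculated by spraying an aqueous Alternaria brassicae spore suspension 24 h after treatment.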

A further test deals with Pyricularia oryzae. As to the kind of experiment: microbe, parasite or virus in culture. In kind it is cell-based. To be noted: 120 h; for inhibition at 20 ppm: read-out: efficacy (inhibition of fungal growth), 20 ppm of active ingredient, liquid culture, 5 days incubation.
A further test has as its system Pyrenophora teres. As to the kind of experiment: Pyrenophora teres in vitro cell test. Type of test: cell-based. The following applies: 144 h, liquid culture, 6 days incubation, read-out: efficacy (inhibition of fungal growth); for inhibition at 20 ppm: 20 ppm of active ingredient. An outline of the steps:
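Compounds in DMSO were added to P. teres spore suspensions in glucose/peptone/yeast-extract liquid medium, testing inhibition of spore germination and mycelium growth. After 6 days, mycelium growth was read by absorbance. Inhibition was calculated relative to fungicide-free control wells.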

The test system of a further test is Fusarium culmorum. Kind of test: Fusarium culmorum in vitro cell test. In kind it is cell-based. To be noted: 120 h, liquid culture, 5 days incubation, read-out: efficacy (inhibition of fungal growth); for inhibition at 20 ppm: 20 ppm of active ingredient. An outline of the steps: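 Spores in liquid mineral-salts/saccharose medium exposed to compounds (DMSO ≤1% final) for 5 days. Mycelium growth measured spectrometrically, with inhibition derived from absorbance relative to fungicide-free control wells.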

Each structure is given as a SMILES string.

Take `Cc1cccc(Sc2cnc3ccccc3c2C2=NOC[C@H](Cc3ccc(C)cc3C)N2)c1` (racemic) [Compound I-023]: the inhibition at 20 ppm (with Botrytis cinerea [1]; in test [3]; in the test with Pyricularia oryzae; in the test on Pyrenophora teres; in the test on Fusarium culmorum) was 90 to 100% throughout. The pest or weed control at 500 ppm in the test with Botrytis cinerea [2] and in the test on Alternaria brassicae was 90 to 100% in each case.

Regarding `Cc1cc([C@@H]2CON=C(c3c(Sc4cccc(Cl)c4)nnc(C)c3C)N2)c(C)s1` (racemic) [Compound I-100], the inhibition at 50 µM with Botrytis cinerea [1] (50 μMol/l of active ingredient) lay in the range of 90 to 100%; in test [3] (50 μMol/l of active ingredient) it was 90 to 100%; with Pyricularia oryzae (read-out: efficacy (inhibition of fungal growth), 50 μMol/l of active ingredient, liquid culture, 5 days incubation), 90 to 100%; in the test on Pyrenophora teres (50 μMol/l of active ingredient) it was 90 to 100%; in the test with Fusarium culmorum (50 μMol/l of active ingredient) it was 90 to 100%. Besides, the pest or weed control at 500 ppm in the test with Botrytis cinerea [2] and with Alternaria brassicae was 90 to 100% in each case.

For `FC(F)(F)c1cccc(Sc2cnc(Cl)cc2C2=NOC[C@@H](Cc3ccc(Cl)cc3Cl)N2)c1` (racemic) [Compound I-022], the inhibition at 20 ppm with Botrytis cinerea [1] was in the range of 90 to 100%; in test [3], 90 to 100%; in the test with Pyricularia oryzae, 80 to 89%; with Pyrenophora teres, 90 to 100%; in the test with Fusarium culmorum, 90 to 100%. The pest or weed control at 500 ppm in the test with Botrytis cinerea [2] is 90 to 100%; in the test with Alternaria brassicae it was 80 to 89%.

Regarding `Cc1ccc(C[C@H]2CON=C(c3c(Sc4cccc(C(F)(F)F)c4)cnc4ccccc34)N2)c(C)c1` (racemic) [Compound I-030], the inhibition at 20 ppm (with Botrytis cinerea [1]; in test [3]; in the test with Pyricularia oryzae; in the test with Pyrenophora teres; in the test on Fusarium culmorum) was 90 to 100% in each case. For the same compound, the pest or weed control at 500 ppm with Botrytis cinerea [2] lay in the range of 90 to 100%; in the test on Alternaria brassicae, 70 to 79%.

With `Cc1ccc(C[C@@H]2CON=C(c3nc(C)ncc3Sc3cccc(Cl)c3)N2)c(Cl)c1` (racemic) [Compound I-033], the inhibition at 20 ppm (with Botrytis cinerea [1]; in test [3]; with Pyrenophora teres; in the test with Fusarium culmorum) was 90 to 100% throughout. In addition, the pest or weed control at 500 ppm fell in the range of 90 to 100% in the test with Botrytis cinerea [2] and 80 to 89% with Alternaria brassicae.

`Cc1cccc(Sc2cnc(C)nc2C2=NOC[C@@H](Cc3ccc(C)cc3C)N2)c1` (racemic) [Compound I-032]: the inhibition at 20 ppm with Botrytis cinerea [1] was 90 to 100%; in test [3], 90 to 100%; with Pyricularia oryzae, 70 to 79%; in the test with Pyrenophora teres, 90 to 100%; in the test with Fusarium culmorum, 80 to 89%. Also, the pest or weed control at 500 ppm in the test on Botrytis cinerea [2] and in the test on Alternaria brassicae was 90 to 100% in each case.

Regarding `Cc1ccc(C[C@@H]2CON=C(c3c(Sc4cccc(C(F)(F)F)c4)nnc4ccccc34)N2)c(C)c1` (racemic) [Compound I-029], the inhibition at 20 ppm is 90 to 100% in the test with Botrytis cinerea [1]; 90 to 100% in test [3]; 90 to 100% with Pyricularia oryzae; 90 to 100% with Pyrenophora teres; 80 to 89% in the test with Fusarium culmorum. Moreover, the pest or weed control at 500 ppm with Botrytis cinerea [2] was in the range of 90 to 100%; in the test with Alternaria brassicae, 80 to 89%.

For `Cc1ccc(C[C@@H]2CON=C(c3nc(C)ncc3Sc3cccc(Cl)c3)N2)c(C)c1` (racemic) [Compound I-031], the inhibition at 20 ppm (in the test on Botrytis cinerea [1]; in test [3]; in the test on Pyrenophora teres; with Fusarium culmorum) was 90 to 100% each time. In addition, the pest or weed control at 500 ppm with Botrytis cinerea [2] and in the test with Alternaria brassicae was 90 to 100% each time.
